Laboratory results reported in BigSolDB 2.1.

COc1cc(Cl)nc(N)n1
Settings | solubility (mole fraction)
in 1,4-dioxane, 283.15 K | 0.0229
in 1,4-dioxane, 288.15 K | 0.0264
in 1,4-dioxane, 293.15 K | 0.0316
in 1,4-dioxane, 298.15 K | 0.0367
in 1,4-dioxane, 303.15 K | 0.0422
in 1,4-dioxane, 308.15 K | 0.0493
in 1,4-dioxane, 313.15 K | 0.0569
in 1,4-dioxane, 318.15 K | 0.0648
in 1,4-dioxane, 323.15 K | 0.0746
in DMF, 273.15 K | 0.0496
in DMF, 278.15 K | 0.0544
in DMF, 283.15 K | 0.0595
in DMF, 288.15 K | 0.0648
in DMF, 293.15 K | 0.0712
in DMF, 298.15 K | 0.0775
in DMF, 303.15 K | 0.0846
in DMF, 308.15 K | 0.0926
in DMF, 313.15 K | 0.101
in DMF, 318.15 K | 0.11
in DMF, 323.15 K | 0.12
in acetone, 273.15 K | 0.0076
in acetone, 278.15 K | 0.00947
in acetone, 283.15 K | 0.0117
in acetone, 288.15 K | 0.0143
in acetone, 293.15 K | 0.0174
in acetone, 298.15 K | 0.0211
in acetone, 303.15 K | 0.0255
in acetone, 308.15 K | 0.0302
in acetone, 313.15 K | 0.0358
in acetone, 318.15 K | 0.0422
in acetone, 323.15 K | 0.0492
in acetonitrile, 273.15 K | 0.00136
in acetonitrile, 278.15 K | 0.00174
in acetonitrile, 283.15 K | 0.00223
in acetonitrile, 288.15 K | 0.00276
in acetonitrile, 293.15 K | 0.00345
in acetonitrile, 298.15 K | 0.00426
in acetonitrile, 303.15 K | 0.00523
in acetonitrile, 308.15 K | 0.00633
in acetonitrile, 313.15 K | 0.00773
in acetonitrile, 318.15 K | 0.00927
in acetonitrile, 323.15 K | 0.0111
in chloroform, 273.15 K | 0.00237
in chloroform, 278.15 K | 0.00306
in chloroform, 283.15 K | 0.00389
in chloroform, 288.15 K | 0.00492
in chloroform, 293.15 K | 0.00612
in chloroform, 298.15 K | 0.00758
in chloroform, 303.15 K | 0.00924
in chloroform, 308.15 K | 0.0114
in chloroform, 313.15 K | 0.0138
in chloroform, 318.15 K | 0.0166
in chloroform, 323.15 K | 0.0197
in ethanol, 273.15 K | 0.00128
in ethanol, 278.15 K | 0.00163
in ethanol, 283.15 K | 0.00206
in ethanol, 288.15 K | 0.00259
in ethanol, 293.15 K | 0.00323
in ethanol, 298.15 K | 0.00396
in ethanol, 303.15 K | 0.00488
in ethanol, 308.15 K | 0.00598
in ethanol, 313.15 K | 0.00733
in ethanol, 318.15 K | 0.00886
in ethanol, 323.15 K | 0.0106
in ethyl acetate, 273.15 K | 0.00547
in ethyl acetate, 278.15 K | 0.00687
in ethyl acetate, 283.15 K | 0.00856
in ethyl acetate, 288.15 K | 0.0105
in ethyl acetate, 293.15 K | 0.0129
in ethyl acetate, 298.15 K | 0.0155
in ethyl acetate, 303.15 K | 0.0188
in ethyl acetate, 308.15 K | 0.023
in ethyl acetate, 313.15 K | 0.0276
in ethyl acetate, 318.15 K | 0.033
in ethyl acetate, 323.15 K | 0.0389
in ethylbenzene, 273.15 K | 0.000515
in ethylbenzene, 278.15 K | 0.000689
in ethylbenzene, 283.15 K | 0.000887
in ethylbenzene, 288.15 K | 0.00115
in ethylbenzene, 293.15 K | 0.0015
in ethylbenzene, 298.15 K | 0.00184
in ethylbenzene, 303.15 K | 0.00238
in ethylbenzene, 308.15 K | 0.00299
in ethylbenzene, 313.15 K | 0.00367
in ethylbenzene, 318.15 K | 0.00462
in ethylbenzene, 323.15 K | 0.00567
in isopropanol, 273.15 K | 0.00113
in isopropanol, 278.15 K | 0.00149
in isopropanol, 283.15 K | 0.0019
in isopropanol, 288.15 K | 0.00241
in isopropanol, 293.15 K | 0.00302
in isopropanol, 298.15 K | 0.00377
in isopropanol, 303.15 K | 0.0046
in isopropanol, 308.15 K | 0.00574
in isopropanol, 313.15 K | 0.00701
in isopropanol, 318.15 K | 0.00857
in isopropanol, 323.15 K | 0.0105
in methanol, 273.15 K | 0.00126
in methanol, 278.15 K | 0.00159
in methanol, 283.15 K | 0.00199
in methanol, 288.15 K | 0.00246
in methanol, 293.15 K | 0.0031
in methanol, 298.15 K | 0.00375
in methanol, 303.15 K | 0.00463
in methanol, 308.15 K | 0.00555
in methanol, 313.15 K | 0.00675
in methanol, 318.15 K | 0.00809
in methanol, 323.15 K | 0.00962
in n-propanol, 273.15 K | 0.00122
in n-propanol, 278.15 K | 0.00158
in n-propanol, 283.15 K | 0.00201
in n-propanol, 288.15 K | 0.00256
in n-propanol, 293.15 K | 0.00323
in n-propanol, 298.15 K | 0.00407
in n-propanol, 303.15 K | 0.00502
in n-propanol, 308.15 K | 0.00618
in n-propanol, 313.15 K | 0.0075
in n-propanol, 318.15 K | 0.00916
in n-propanol, 323.15 K | 0.0113
in toluene, 273.15 K | 0.000694
in toluene, 278.15 K | 0.000889
in toluene, 283.15 K | 0.00115
in toluene, 288.15 K | 0.00148
in toluene, 293.15 K | 0.0019
in toluene, 298.15 K | 0.00241
in toluene, 303.15 K | 0.003
in toluene, 308.15 K | 0.00374
in toluene, 313.15 K | 0.00463
in toluene, 318.15 K | 0.00573
in toluene, 323.15 K | 0.00703
